We go through 16 compounds from patent US20240327393A1 (SIRONAX LTD., priority 2021, published 2024).

One assay concerns HT-1080 (ATCC, CCL-121) cells. Nature of the assay: HT-1080 cell viability assay with ferroptosis inducer RSL3 (Cell Titer-Glo). The assay is classed as cell-based. The settings on record: Homo sapiens; HT-1080 cells treated with RSL3; 3-fold, 10-point dilution, 1.1 μM highest concentration; Table 2; read-out: EC50 (nM), ferroptosis inhibitory activity. As to the method: Example 2. Determination of EC50 Values in HT-1080 Cell Viability Assay
HT-1080 (ATCC, CCL-121) cells (6000 in 100 μl) were seeded in 96-well plates (Corning) and cultured in a 37° C. incubator with a humidified atmosphere of 5% CO2 for overnight. Cells were then treated with ferroptosis inducer RSL3 (TargetMol) and a 3-fold, 10-point serial dilution series of compounds with 1.1 μM as the highest concentration, […]. Cell viability was assessed using the Cell Titer-Glo Kit (Promega). The luminescence intensity was measured with a microplate reader (Envision, PerkinElmer), and cell viability was calculated by normalizing the data to untreated controls. The EC50 values of the compounds (e.g., Compounds 1-659) were calculated in GraphPad Prism (GraphPad Software, Inc., San Diego, CA, USA). The curves were fitted using a non-linear regression model with a sigmoidal dose response.
By EC50 is commonly meant the concentration giving half of the maximal effect. On to `CC1CCC(C)N1c1ccc(Nc2ccc3c(=O)n(C)[nH]c3c2)cc1` (stereo not shown) [Compound 259, 6-((4-(2,5-dimethylpyrrolidin-1-yl)phenyl)amino)-2-methyl-1,2-dihydro-3H-indazol-3-one], for which the EC50 lay in the range of 0.1 to 100 nM.

Take `COCCn1c(=O)n(C)c2ccc(Nc3ccc(N4CCC(C(F)(F)F)CC4)cc3)cc21` [Compound 334, 3-(2-methoxyethyl)-1-methyl-5-((4-(4-(trifluoromethyl)piperidin-1-yl)phenyl)amino)-1,3-dihydro-2H-benzo[d]imidazol-2-one]: the EC50 lay within 0.1 to 100 nM.

Regarding `CN(C)c1cc(Nc2ccc3c(=O)n(C)[nH]c3c2)ccc1N1CCCCC1` [Compound 304, 6-((3-(dimethylamino)-4-(piperidin-1-yl)phenyl)amino)-2-methyl-1,2-dihydro-3H-indazol-3-one], the EC50 was in the range of 0.1 to 100 nM.

Take `CC1CN(c2ccc(Nc3ccc4c(c3)OCC(=O)N4C)cc2F)CC(C)O1` (stereo not shown) [Compound 73, 7-((4-(2,6-dimethylmorpholino)-3-fluorophenyl)amino)-4-methyl-2H-benzo[b][1,4]oxazin-3(4H)-one]: the concentration giving a half-maximal response (EC50) fell in the range of 0.1 to 100 nM.

In the case of `CC1CN(c2ccc(Nc3ccc4c(c3)OCC(=O)N4)cc2)CC(C)O1` (stereo not shown) [Compound 140, 7-((4-(2,6-dimethylmorpholino)phenyl)amino)-2H-benzo[b][1,4]oxazin-3(4H)-one], the 50% effective concentration (EC50) was in the range of 0.1 to 100 nM. Still for that read-out and setting: as for `CCN1Cc2ccc(Nc3ccc(N4CCC(C(F)(F)F)CC4)cc3)cc2C1` [Compound 175, 2-ethyl-N-(4-(4-(trifluoromethyl)piperidin-1-yl)phenyl)isoindolin-5-amine], the figure is 0.1 to 100 nM. With `CN1C(=O)COc2cc(Nc3ccc(N4CCC(C(F)(F)F)CC4)cc3)c(F)cc21` [Compound 156, 6-fluoro-4-methyl-7-((4-(4-(trifluoromethyl)piperidin-1-yl)phenyl)amino)-2H-benzo[b][1,4]oxazin-3(4H)-one], the EC50 lay in the range of 0.1 to 100 nM.

On to `CC1CCN(c2ccc(Nc3ccc4c(=O)n(C)[nH]c4c3)cc2)CC1` [Compound 251, 2-methyl-6-((4-(4-methylpiperidin-1-yl)phenyl)amino)-1,2-dihydro-3H-ind azol-3-one], for which the EC50 lay in the range of 0.1 to 100 nM. Consider `CC1CN(c2ccc(Nc3ccc4c(c3)oc(=O)n4CCN(C)C)cc2)CC(C)O1` (stereo not shown) [Compound 424], for which the EC50 lay within 0.1 to 100 nM.

With `Cc1cc(N2CCC(C(F)(F)F)CC2)ccc1Nc1ccc2c(c1)CNC2` [Compound 410, N-(2-methyl-4-(4-(trifluoromethyl)piperidin-1-yl)phenyl) isoindolin-5-amine], the EC50 lay within 0.1 to 100 nM.

On to `Cc1nc2ccc(Nc3ccc(N4CCC(C)CC4)cc3)cc2o1` [Compound 339, 2-methyl-N-(4-(4-methylpiperidin-1-yl)phenyl)benzo[d]oxazol-6-amine], for which the EC50 fell in the range of 0.1 to 100 nM. Regarding `CCNc1nc2cc(Nc3ccc(N4CCC(C(F)(F)F)CC4)cc3)ccc2n1C` [Compound 401, N2-ethyl-1-methyl-N5-(4-(4-(trifluoromethyl)piperidin-1-yl)phenyl)-1H-benzo[d]imidazole-2,5-diamine], the 50% effective concentration (EC50) lay in the range of 0.1 to 100 nM.

The assay is the same for the next values; noted with them: Homo sapiens; HT-1080 cells treated with RSL3; 3-fold, 10-point dilution, 1.1 μM highest concentration; Table 3; read-out: EC50 (nM), ferroptosis inhibitory activity.
As for `Cc1cc(N2CCC(C(F)(F)F)CC2)ccc1Nc1ccc2[nH]cnc2c1` [Compound 567], the EC50 lay within 0.1 to 100 nM.

In the case of `Cc1cc(N2CCC(C)CC2)ccc1Nc1cnc2c(c1)OCC(=O)N2` [Compound 575, 7-((2-methyl-4-(4-methylpiperidin-1-yl)phenyl)amino)-2H-pyrido[3,2-b][1,4]oxazin-3(4H)-one], the half-maximal effective concentration (EC50) fell in the range of 0.1 to 100 nM. The same measure, in the same setting: in the case of `COC1(C(F)(F)F)CCN(c2ccc(Nc3ccc4c(c3)OCC(=O)N4)c(C)n2)CC1` [Compound 503, 7-((6-(4-methoxy-4-(trifluoromethyl)piperidin-1-yl)-2-methylpyridin-3-yl)amino)-2H-benzo[b][1,4]oxazin-3(4H)-one] it was 0.1 to 100 nM. As for `CCN(CC)c1ccc(Nc2ccc3c(c2)OCC(=O)N3)c(C)c1` [Compound 501, 7-((4-(diethylamino)-2-methylphenyl)amino)-2H-benzo[b][1,4]oxazin-3(4H)-one], the half-maximal effective concentration (EC50) was in the range of 0.1 to 100 nM.
